# Data as given in publication PMC12281487, “Discovery and Validation of a Novel Class of Necroptosis Inhibitors Targeting RIPK1” (ACS Chemical Biology, 2025).
# Tests used:
# recombinant hRIPK1 = biological target: T1, recombinant hRIPK1 (Homo sapiens, UniProt Q13546); test: ADP-Glo kinase assay; assay type: biochemical; settings: for IC50: GST-RIPK1 75 nM
# T1 construct: Th (between GST and residue 1); purchased BPS Bioscience 40371
# T1 sequence (Q13546 1-327): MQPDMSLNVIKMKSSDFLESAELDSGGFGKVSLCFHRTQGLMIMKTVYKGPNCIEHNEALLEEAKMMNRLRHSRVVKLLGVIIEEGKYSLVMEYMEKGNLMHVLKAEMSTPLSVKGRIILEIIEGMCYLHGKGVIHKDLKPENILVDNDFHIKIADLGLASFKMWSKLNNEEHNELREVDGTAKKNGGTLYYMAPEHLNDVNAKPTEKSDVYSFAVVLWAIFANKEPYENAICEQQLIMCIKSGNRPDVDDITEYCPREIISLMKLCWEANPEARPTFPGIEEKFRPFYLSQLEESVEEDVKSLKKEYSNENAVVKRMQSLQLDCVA
# Experimental: Compound potency and mode of inhibition against RIPK1 kinase activity were determined by using an ADP-Glo kinase assay (Promega). The assay was carried out in accordance with the manufacturer’s protocol. The initial kinase reaction was performed by incubating recombinant hRIPK1 (GST-Th-1-327 from BPS Bioscience ref 40371, 75 nM) with the inhibitor (0–100 μM) and ATP (0–500 μM) for 4 h at 24 °C in kinase assay buffer (50 mM HEPES pH 7.5, 50 mM NaCl, 30 mM MgCl2, 0.5 mg mL^–1 BSA, 0.02% CHAPS, and 4 mM DTT). Following this reaction, ADP-Glo Reagent and Kinase Detection Reagent were successively added and incubated for 1 and 0.5 h at 24 °C, respectively. A […] (kinase assay reaction/ADP-Glo Reagent/Kinase Detection Reagent) volume ratio of the kit’s components was used. Bioluminescence was measured on a Varioskan LUX multimode microplate reader with SkanIt Software. Experiments were conducted in triplicate. Concentration response curves and IC50 values were generated from nonlinear regression fits performed on GraphPad Prism 9.1.1. Additionally, the produced ADP concentration values were divided by the kinase reaction incubation time to calculate reaction velocity values and generate velocity curves. Velocity curves were fitted in Michaelis–Menten model on GraphPad Prism 9.1.1 to calculate the maximum velocity (v max) and Michaelis–Menten constant (K M) parameters.
# kinase domain of RIPK1 = biological target: T2, kinase domain of RIPK1 (Homo sapiens, UniProt Q13546); test: SPR binding assay
# T2 construct: recombinant human kinase domain of RIPK1 [RIPK1 (8-322)-Avi-His]; His (C); made in house; host or cells: Sf21 insect cells (baculovirus, Bac-to-Bac), co-expressed with Cdc37
# T2 sequence (Q13546 8-322): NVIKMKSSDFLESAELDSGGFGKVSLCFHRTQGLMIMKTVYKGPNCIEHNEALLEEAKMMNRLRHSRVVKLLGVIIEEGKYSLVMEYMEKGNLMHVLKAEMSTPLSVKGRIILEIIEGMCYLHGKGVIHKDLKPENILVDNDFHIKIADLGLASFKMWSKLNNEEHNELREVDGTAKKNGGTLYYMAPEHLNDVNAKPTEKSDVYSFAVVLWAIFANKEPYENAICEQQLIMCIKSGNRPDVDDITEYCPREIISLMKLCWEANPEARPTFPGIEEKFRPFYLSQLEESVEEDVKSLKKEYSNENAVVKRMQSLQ
# Experimental: Biotinylated recombinant human kinase domain of RIPK1 [RIPK1 (8-322)-Avi-His] was produced in Sf21 cells using baculovirus infection (Bac-to-Bac system, Thermo Fisher Scientific). Briefly, the RIPK1 (8-322)-Avi-His baculovirus was inoculated into Sf21 cells at 1.5 × 10^6 cells/mL, with 1 mL of virus added per 500 mL of cells for P2 virus generation. The cells were grown at 27 °C, 140 rpm for 72 h. RIPK1 was co-expressed with Cdc37 at a 4:1 (RIPK1/Cdc37) v/v virus ratio in Sf21 cells by inoculation with P2 virus (25 mL per 500 mL bottle). The cells were grown at 27 °C while shaking at 140 rpm for 48 h before being harvested by centrifugation at 6500 rpm and 4 °C for 15 min and stored at −80 °C before further purification. 25 μM of Nec-1s (ab221984, Abcam) was added to the culture medium at time of viral infection to stabilize protein.
# Briefly, RIPK1 kinase domain was immobilized on a streptavidin-coated sensor chip (Cytiva). The surface was washed with 10 mM NaOH, 1 M NaCl, followed by immobilization of the protein. […] The reference spot was treated as described, omitting the injection of RIPK1. Compound concentration series was injected over the immobilized protein in increasing concentrations using multi cycle or single cycle kinetics in running buffer (10 mM HEPES, 150 mM NaCl, 0.05% Tween20, 0.1% DMSO, pH 7.4). A 1:1 Langmuir interaction model was fitted to the experimental traces, enabling determination of k on, k off, and K D.
# RIPK1 = biological target: T3, RIPK1 (Homo sapiens, UniProt Q13546); test: Streptavidin mass shift assay (photoaffinity labeling, target engagement) in I2.1 cells; assay type: cell-based; settings: competition assay, pretreatment before 7PQYnD photoaffinity labeling
# T3 construct: Following incubation of I2.1 cells with the probe, irradiation to induce photocrosslinking; endogenous in cells; host or cells: I2.1 FADD-deficient Jurkat T cells (ATCC, CRL-2572)
# T3 sequence (Q13546 1-671): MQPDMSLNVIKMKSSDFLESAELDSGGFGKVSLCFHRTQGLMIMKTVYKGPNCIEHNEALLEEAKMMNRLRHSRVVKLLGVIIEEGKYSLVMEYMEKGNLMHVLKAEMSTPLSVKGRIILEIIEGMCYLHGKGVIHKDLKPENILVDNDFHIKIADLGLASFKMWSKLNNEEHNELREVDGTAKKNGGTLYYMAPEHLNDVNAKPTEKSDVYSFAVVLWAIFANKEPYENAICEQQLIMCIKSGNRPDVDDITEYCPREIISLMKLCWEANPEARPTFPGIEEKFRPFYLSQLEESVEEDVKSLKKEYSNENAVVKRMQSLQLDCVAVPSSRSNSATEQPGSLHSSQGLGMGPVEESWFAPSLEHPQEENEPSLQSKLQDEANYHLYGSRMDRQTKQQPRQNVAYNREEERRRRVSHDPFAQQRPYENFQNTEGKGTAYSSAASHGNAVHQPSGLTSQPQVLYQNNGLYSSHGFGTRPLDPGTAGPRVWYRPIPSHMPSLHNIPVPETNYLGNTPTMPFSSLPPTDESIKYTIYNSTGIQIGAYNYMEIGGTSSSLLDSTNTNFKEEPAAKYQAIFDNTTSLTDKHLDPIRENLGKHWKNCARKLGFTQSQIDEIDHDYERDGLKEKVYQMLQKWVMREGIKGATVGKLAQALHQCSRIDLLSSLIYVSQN
# Experimental: Target engagement was confirmed by Streptavidin mass shift assay, whereby lysates are incubated with streptavidin and subsequently separated by SDS–PAGE. The high stability of streptavidin at a range of temperatures, in various detergents and pH, in combination with the extremely high affinity for biotin means the streptavidin–biotin interaction is not separated during gel electrophoresis, resulting in a mass shift of biotin-labeled proteins in the presence of streptavidin, which can be visualized by Western blot (Figure a).
# I2.1 cells were seeded in sterile six-well plates at a density of 2 × 10^6 cells per well and incubated at 37 °C overnight. 1000× stocks of the desired concentration of compound in DMSO were preprepared. […]
# Cells were transferred to a microcentrifuge tube, centrifuged at 200g for 5 min, and media removed. […] Protein concentration was determined using the DC Protein Assay (Bio-Rad) in a 96-well plate as per the manufacturer’s instructions and the concentration adjusted to 1–2 mg mL^–1 using lysis buffer. […]
# Samples were prepared by adding 4 μL of 4× loading buffer to 10 μL of the protein samples and boiling at 95 °C for 10 min. […] In-gel fluorescence was detected by using a Typhoon FLA 9500 biomolecular imager (750 V, 100 μm pixels). […]
# C57BL/6J mice = test: TNF-induced SIRS murine model; settings: 5 mg/kg i.v. 15 min before TNF 0.5 mg/kg i.v., 3 mice per group
# Experimental: Male C57BL/6J mice of 18–25 g were used at the age of 6–8 weeks. Three animals were included in each experimental group. All animal experiments were carried out with the permission of the local animal ethical committee in accordance with the EU Directive (2010/63/EU), Portuguese laws (DL113/2013, 2880/2015, 260/2016), and all relevant legislations. Animals received humane care in a temperature-controlled environment with a 12 h light–dark cycle and ad libitum access to pelleted chow and water, complying with the Institute’s guidelines, and as outlined in the “Guide for the Care and Use of Laboratory Animals” prepared by the National Academy of Sciences and published by the National Institutes of Health (NIH publication 86-23 revised 1985). […] TNF was diluted in sterile PBS. […] All injections were administered intravenously (i.v.).
smiles,measurement,setting,value
"CN1C(=O)C(Cc2c[nH]c3ccccc23)NC1=S (centres unmarked) [Nec-1, Necrostatin 1]",IC50,recombinant hRIPK1; ATP concentration 10 μM,2700 nM
same,IC50,recombinant hRIPK1; ATP concentration 500 μM,8100 nM
same,mode of inhibition with respect to ATP,recombinant hRIPK1; ATP concentrations 10–500 μM,competition with ATP
same,koff,"kinase domain of RIPK1; 1:1 fitting, 20 °C",0.011 ± 0.002 s⁻¹
same,kon,"kinase domain of RIPK1; 1:1 fitting, 20 °C",260000 M⁻¹ s⁻¹
same,Kd,"kinase domain of RIPK1; absence of Nec-1, read-out: Binding affinity (pKD) (converted)",44.7 nM
same,7PQYnD-mediated RIPK1 streptavidin band shift after pretreatment with competitor,RIPK1,retained
same,protection from TNF-induced mortality (survival),C57BL/6J mice,partially protected
